Reference: US20040242591A1, “Oxazolidinone derivatives as pontential antimicrobials” (priority 2001, published 2004)

Tests used:
Ent. faecalis ATCC 29212 = assay: MIC by agar incorporation method, E.faecalis 29212; assay type: cell-based, Enterococcus faecalis; set-up: unit not given here; conditions: Mueller Hinton agar, 10^4 CFU/spot, 18 hours
Text: 3) Ent. faecalis ATCC 29212—Enterococcus faecalis ATCC 29212

S. pneum AB 34 = assay: MIC by agar incorporation method, S. pneum AB 34; assay type: cell-based, Streptococcus pneumoniae; set-up: unit not given here; conditions: Mueller Hinton agar, 10^4 CFU/spot, 18 hours
VRE 6A = assay: MIC by agar incorporation method, VRE 6A; assay type: cell-based, Enterococcus faecium; set-up: unit not given here; conditions: Mueller Hinton agar, 10^4 CFU/spot, 18 hours
Text: 4) Ent. faecium […]—Enterococcus faecium 6A Van®, Cipro®

Strep. pne. ATCC 6303 = assay: MIC by agar incorporation method, S. pneum 6303; assay type: cell-based, Streptococcus pneumoniae; conditions: Mueller Hinton agar, 10^4 CFU/spot, 18 hours
Text: 5) Strep. pne. ATCC 6303—Streptococcus pneumoniae ATCC 6303

MRSA 15187 = assay: MIC by agar incorporation method, MRSA 15187; assay type: cell-based, Methicillin Resistant Staphylococcus aureus; set-up: unit not given here; conditions: Mueller Hinton agar, 10^4 CFU/spot, 24 hours
Text: 2) MRSA 15187—Methicillin Resistant Staphylococcus aureus

Strep.pyog. ATCC 19615 = assay: MIC by agar incorporation method, S.pyogenes 19615; assay type: cell-based, Streptococcus pyogenes; set-up: unit not given here; conditions: Mueller Hinton agar, 10^4 CFU/spot, 18 hours
Text: 6) Strep.pyog. ATCC 19615—Streptococcus pyogenes

S.aureus ATCC 25923 = assay: MIC by agar incorporation method, S.aureus 25923; assay type: cell-based, Staphylococus aureus; set-up: unit not given here; conditions: Mueller Hinton agar, 10^4 CFU/spot, 18 hours
MRSA 562 = assay: MIC by agar incorporation method, MRSA 562; assay type: cell-based, Methicillin Resistant Staphylococcus aureus; set-up: unit not given here; conditions: Mueller Hinton agar, 10^4 CFU/spot, 24 hours
MRSA 33 = assay: MIC by agar incorporation method, MRSA 33; assay type: cell-based, Methicillin Resistant Staphylococcus aureus; set-up: unit not given here; conditions: Mueller Hinton agar, 10^4 CFU/spot, 24 hours

CC(=O)NC[C@H]1CN(c2ccc(N3CCN(C(=O)c4ccc([N+](=O)[O-])s4)C(C)C3)c(F)c2)C(=O)O1 (stereo partly drawn) [Compound No. 70, (S)-N-[[3-[3-Fluoro-4-[N-1-[3-methyl-4-{2-thienoyl-(5-nitro)}]-piperazinyl]phenyl]-2-oxo-5-oxazolidinyl]methyl]acetamide]
In Vitro (MIC) E.faecalis 29212 (Ent. faecalis ATCC 29212): 2 | In Vitro (MIC) S. pneum AB 34 (S. pneum AB 34): 4 | In Vitro (MIC) VRE 6A (VRE 6A): 1 | In Vitro (MIC) S. pneum 6303 (Strep. pne. ATCC 6303): 4 µg/mL | In Vitro (MIC) MRSA 15187 (MRSA 15187): 0.5 | In Vitro (MIC) S.pyogenes 19615 (Strep.pyog. ATCC 19615): <0.25 | In Vitro (MIC) S.aureus 25923 (S.aureus ATCC 25923): <0.25 | In Vitro (MIC) MRSA 562 (MRSA 562): <0.25 | In Vitro (MIC) MRSA 33 (MRSA 33): <0.25

O=C(CCl)NC[C@H]1CN(c2ccc(N3CCN(Cc4ccc([N+](=O)[O-])o4)CC3)c(F)c2)C(=O)O1 [Compound No. 46]
In Vitro (MIC) E.faecalis 29212 (Ent. faecalis ATCC 29212): 2 | In Vitro (MIC) S. pneum AB 34 (S. pneum AB 34): 1 | In Vitro (MIC) VRE 6A (VRE 6A): 2 | In Vitro (MIC) S. pneum 6303 (Strep. pne. ATCC 6303): 0.5 µg/mL | In Vitro (MIC) MRSA 15187 (MRSA 15187): 2 | In Vitro (MIC) S.pyogenes 19615 (Strep.pyog. ATCC 19615): 0.5 | In Vitro (MIC) S.aureus 25923 (S.aureus ATCC 25923): 2 | In Vitro (MIC) MRSA 562 (MRSA 562): 2 | In Vitro (MIC) MRSA 33 (MRSA 33): 2

CC(=O)NC[C@H]1CN(c2ccc(N3CCN(CC(=O)c4cccs4)CC3)c(F)c2)C(=O)O1 [Compound No. 2, (S)-N-[[3-[3-Fluoro-4-[N-1-[4-(2-thiophenoyl-methyl}]piperazinyl]phenyl]-2-oxo-5-oxazolidinyl]methyl]acetamide]
In Vitro (MIC) E.faecalis 29212 (Ent. faecalis ATCC 29212): 8 | In Vitro (MIC) S. pneum AB 34 (S. pneum AB 34): 8 | In Vitro (MIC) VRE 6A (VRE 6A): 8 | In Vitro (MIC) S. pneum 6303 (Strep. pne. ATCC 6303): 2 µg/mL | In Vitro (MIC) MRSA 15187 (MRSA 15187): 8 | In Vitro (MIC) S.pyogenes 19615 (Strep.pyog. ATCC 19615): 2 | In Vitro (MIC) S.aureus 25923 (S.aureus ATCC 25923): 8 | In Vitro (MIC) MRSA 562 (MRSA 562): 4 | In Vitro (MIC) MRSA 33 (MRSA 33): 4

CC(=O)NC[C@H]1CN(c2ccc(N3CCN(Cc4ccc([N+](=O)[O-])o4)CC3C)c(F)c2)C(=O)O1 (stereo partly drawn) [Compound No. 58, (S)-N-[[3-[3-Fluoro-4-[N-1-[2-methyl-4-{2-furyl(5-nitro)methyl}]-piperazinyl]phenyl]-2-oxo-5-oxazolidinyl]methyl]acetamide]
In Vitro (MIC) E.faecalis 29212 (Ent. faecalis ATCC 29212): 4 | In Vitro (MIC) S. pneum AB 34 (S. pneum AB 34): 16 | In Vitro (MIC) VRE 6A (VRE 6A): 4 | In Vitro (MIC) S. pneum 6303 (Strep. pne. ATCC 6303): 8 µg/mL | In Vitro (MIC) MRSA 15187 (MRSA 15187): 4 | In Vitro (MIC) S.pyogenes 19615 (Strep.pyog. ATCC 19615): 4 | In Vitro (MIC) S.aureus 25923 (S.aureus ATCC 25923): 4 | In Vitro (MIC) MRSA 562 (MRSA 562): 2 | In Vitro (MIC) MRSA 33 (MRSA 33): 4

CCN(C(=O)c1ccc([N+](=O)[O-])o1)C1CCN(c2ccc(N3C[C@H](CNC(C)=O)OC3=O)cc2F)CC1 [Compound No. 80, (S)-N-[[3-[3-Fluoro-4-[4-{N-ethyl-2-furoyl-(5-nitro)}aminopiperidine-1-yl]phenyl]-2-oxo-5-oxazolidinyl]methyl]acetamide]
In Vitro (MIC) E.faecalis 29212 (Ent. faecalis ATCC 29212): 1 | In Vitro (MIC) S. pneum AB 34 (S. pneum AB 34): 4 | In Vitro (MIC) VRE 6A (VRE 6A): 1 | In Vitro (MIC) S. pneum 6303 (Strep. pne. ATCC 6303): 4 µg/mL | In Vitro (MIC) MRSA 15187 (MRSA 15187): 1 | In Vitro (MIC) S.pyogenes 19615 (Strep.pyog. ATCC 19615): 2 | In Vitro (MIC) S.aureus 25923 (S.aureus ATCC 25923): 1 | In Vitro (MIC) MRSA 562 (MRSA 562): 0.5 | In Vitro (MIC) MRSA 33 (MRSA 33): 1

CC(=O)NC[C@H]1CN(c2ccc(N3C(C)CN(C(=O)c4ccco4)CC3C)c(F)c2)C(=O)O1 (stereo partly drawn) [Compound No. 61, (S)-N-[[3-[3-Fluoro-4-[N-1-[2,6-dimethyl-4-{2-furoyl-}]-piperazinyl]phenyl]-2-oxo-5-oxazolidinyl]methyl]acetamide]
In Vitro (MIC) E.faecalis 29212 (Ent. faecalis ATCC 29212): 4 | In Vitro (MIC) S. pneum AB 34 (S. pneum AB 34): 2 | In Vitro (MIC) VRE 6A (VRE 6A): 4 | In Vitro (MIC) S. pneum 6303 (Strep. pne. ATCC 6303): 2 µg/mL | In Vitro (MIC) MRSA 15187 (MRSA 15187): 4 | In Vitro (MIC) S.pyogenes 19615 (Strep.pyog. ATCC 19615): 2 | In Vitro (MIC) S.aureus 25923 (S.aureus ATCC 25923): 4 | In Vitro (MIC) MRSA 562 (MRSA 562): 4 | In Vitro (MIC) MRSA 33 (MRSA 33): 4

CC(=O)NC[C@H]1CN(c2ccc(N3CCN(Cc4cc([N+](=O)[O-])cn4C)CC3)c(F)c2)C(=O)O1 [Compound No. 11]
In Vitro (MIC) E.faecalis 29212 (Ent. faecalis ATCC 29212): 4 | In Vitro (MIC) S. pneum AB 34 (S. pneum AB 34): 4 | In Vitro (MIC) VRE 6A (VRE 6A): 4 | In Vitro (MIC) S. pneum 6303 (Strep. pne. ATCC 6303): 2 µg/mL | In Vitro (MIC) MRSA 15187 (MRSA 15187): 4 | In Vitro (MIC) S.pyogenes 19615 (Strep.pyog. ATCC 19615): 2 | In Vitro (MIC) S.aureus 25923 (S.aureus ATCC 25923): 4 | In Vitro (MIC) MRSA 562 (MRSA 562): 4 | In Vitro (MIC) MRSA 33 (MRSA 33): 4

CC(=O)NC[C@H]1CN(c2ccc(N3CC4C(CNCc5ccc([N+](=O)[O-])o5)C4C3)c(F)c2)C(=O)O1 (stereo partly drawn) [Compound No. 99, (S)-N-[[3-[3-Fluoro-4[N-1-[3-{N-2-furyl-(5-nitro)methyl}-aminomethyl]-3-azabicyclo[3.1.0]hexane]phenyl]-2-oxo-5-oxazolidinyl]methyl]acetamide]
In Vitro (MIC) E.faecalis 29212 (Ent. faecalis ATCC 29212): >8 | In Vitro (MIC) S. pneum AB 34 (S. pneum AB 34): 4 | In Vitro (MIC) VRE 6A (VRE 6A): 8 | In Vitro (MIC) S. pneum 6303 (Strep. pne. ATCC 6303): 4 µg/mL | In Vitro (MIC) MRSA 15187 (MRSA 15187): >8 | In Vitro (MIC) S.pyogenes 19615 (Strep.pyog. ATCC 19615): 2 | In Vitro (MIC) S.aureus 25923 (S.aureus ATCC 25923): >8 | In Vitro (MIC) MRSA 562 (MRSA 562): >8 | In Vitro (MIC) MRSA 33 (MRSA 33): >8

CC(=O)NC[C@H]1CN(c2ccc(N3CCCN(Cc4ccc([N+](=O)[O-])o4)CC3)c(F)c2)C(=O)O1 [Compound No. 52, (S)-N-[[3-[3-Fluoro-4-[N-1-[4-{2-furyl(5-nitro)methyl}]homopiperazinyl]phenyl]-2-oxo-5-oxazolidinyl]methyl]acetamide]
In Vitro (MIC) E.faecalis 29212 (Ent. faecalis ATCC 29212): 2 | In Vitro (MIC) S. pneum AB 34 (S. pneum AB 34): 4 | In Vitro (MIC) VRE 6A (VRE 6A): 2 | In Vitro (MIC) S. pneum 6303 (Strep. pne. ATCC 6303): 1 µg/mL | In Vitro (MIC) MRSA 15187 (MRSA 15187): 2 | In Vitro (MIC) S.pyogenes 19615 (Strep.pyog. ATCC 19615): 1 | In Vitro (MIC) S.aureus 25923 (S.aureus ATCC 25923): 2 | In Vitro (MIC) MRSA 562 (MRSA 562): 1 | In Vitro (MIC) MRSA 33 (MRSA 33): 2

CC(=O)NC[C@H]1CN(c2ccc(N3CCN(C(=O)Cc4cccs4)C(C)C3)c(F)c2)C(=O)O1 (stereo partly drawn) [Compound No. 68, (S)-N-[[3-[3-Fluoro-4-[N-1-[3-methyl-4-{2-thienylacetyl-}]-piperazinyl]phenyl]-2-oxo-5-oxazolidinyl]methyl]acetamide]
In Vitro (MIC) E.faecalis 29212 (Ent. faecalis ATCC 29212): 4 | In Vitro (MIC) S. pneum AB 34 (S. pneum AB 34): 4 | In Vitro (MIC) VRE 6A (VRE 6A): 4 | In Vitro (MIC) S. pneum 6303 (Strep. pne. ATCC 6303): 4 µg/mL | In Vitro (MIC) MRSA 15187 (MRSA 15187): 4 | In Vitro (MIC) S.pyogenes 19615 (Strep.pyog. ATCC 19615): 2 | In Vitro (MIC) S.aureus 25923 (S.aureus ATCC 25923): 4 | In Vitro (MIC) MRSA 562 (MRSA 562): 4 | In Vitro (MIC) MRSA 33 (MRSA 33): 4

CC(=O)NC[C@H]1CN(c2ccc(N3CCN(C(=O)c4ccc(-c5ccc(Cl)cc5[N+](=O)[O-])o4)CC3)c(F)c2)C(=O)O1 [Compound No. 35]
In Vitro (MIC) E.faecalis 29212 (Ent. faecalis ATCC 29212): 0.5 | In Vitro (MIC) S. pneum AB 34 (S. pneum AB 34): 1 | In Vitro (MIC) VRE 6A (VRE 6A): 1 | In Vitro (MIC) S. pneum 6303 (Strep. pne. ATCC 6303): 1 µg/mL | In Vitro (MIC) MRSA 15187 (MRSA 15187): 1 | In Vitro (MIC) S.pyogenes 19615 (Strep.pyog. ATCC 19615): 1 | In Vitro (MIC) S.aureus 25923 (S.aureus ATCC 25923): 1 | In Vitro (MIC) MRSA 562 (MRSA 562): 1 | In Vitro (MIC) MRSA 33 (MRSA 33): 1

CC(=O)NC[C@H]1CN(c2ccc(N3CCN(Cc4ccoc4[N+](=O)[O-])CC3)c(F)c2)C(=O)O1 [Compound No. 18, (S)-N-[[3-[3-Fluoro-4-[N-1[4-{3-furyl(2-nitro)methyl}]piperazinyl]phenyl]-2-oxo-5-oxazolidinyl]methyl]acetamide]
In Vitro (MIC) E.faecalis 29212 (Ent. faecalis ATCC 29212): 4 | In Vitro (MIC) S. pneum AB 34 (S. pneum AB 34): 2 | In Vitro (MIC) VRE 6A (VRE 6A): 4 | In Vitro (MIC) S. pneum 6303 (Strep. pne. ATCC 6303): 1 µg/mL | In Vitro (MIC) MRSA 15187 (MRSA 15187): 4 | In Vitro (MIC) S.pyogenes 19615 (Strep.pyog. ATCC 19615): 1 | In Vitro (MIC) S.aureus 25923 (S.aureus ATCC 25923): 8 | In Vitro (MIC) MRSA 562 (MRSA 562): 4 | In Vitro (MIC) MRSA 33 (MRSA 33): 4
